The subject of series [1] is fibrillar collagen type I. The series is described as follows: Blood perfusion over fibrillar collagen type I, volume of platelet aggregates and fibrin. It counts as cell-based, human. Particulars: blood of treated patients, collagen surface. On the procedure: The volume of platelet aggregates and deposited fibrin was measured by confocal microscopy. Statistical analysis by one-way ANOVA and Tukey post-test. *P<0.05; **P<0.01; ***P<0.001.
Glass coverslips treated with 0.2 mg/ml poly-L-lysine for 6 h at 37° C. were coated with rTF for 18-20 hours at 37° C. or 2.5 mg/ml acid-insoluble type I collagen for 2 hours at 22-25° C. Then they were rinsed with pH 7.4 buffered-saline, assembled in a rectangular flow chamber with a 125 μm-high silicon gasket and positioned on a confocal microscope stage for analysis. Venous blood for testing was collected into final 10.9 mM trisodium citrate using a plastic syringe for normal volunteers or Vacutainer tubes (Becton Dickinson, Buccinasco, Milan) for patients and controls. Before perfusion at a flow rate yielding an initial wall shear rate of 300 s^−1 maintained with a syringe pump (Harvard Apparatus, Holliston, Mass.), CaCl2 was added to obtain 1.29 mM Ca^2+. In the blood of patients—potentially hypercoagulable—and related controls, lepirudin (50 nM) was also added to neutralize thrombin possibly generated before testing. […] For experiments with WT and mutant FVIIa, cells from group O citrated blood, containing 50 μg/ml CTI and 10 U/ml (ADPase activity) apyrase, were washed free of plasma by sequential centrifugation steps at 1500 g for 7 min. After the first, plasma was replaced with an equal volume of calcium-free Tyrode buffer, pH 6.5, with 5 U/ml apyrase; then with buffer and 1.25 U/ml apyrase; and finally with human FVII deficient plasma (George King Bio-Medical, Overland Park, Kans.) up to the original blood volume. […] Experiments in Milan (Italy) were performed with a Leica TCS SP5 microscope and HCX PL APO 63x/1.40 NA oil immersion objective (Leica Microsystems GmbH, Wetzlar, Germany); in La Jolla (California) with a Zeiss Axiovert 135M/LSM 410 and Plan-Apochromat 40x/1.40 NA oil immersion objective (Carl Zeiss AG, Oberkochen, Germany).
Platelets adhering and aggregating onto the surface were visualized by adding quinacrine-HCl (mepacrine; 10 μg/ml; Sigma-Aldrich) to blood. Deposited fibrin was visualized with Alexa Fluor 546-labeled (Invitrogen) mouse monoclonal IgG (50 μg/ml) specific for the B chain of mouse and human fibrin (HB-8545; ATCC). […] This was followed by buffer (DMEM) for 2 minutes to facilitate fibrin quantification by confocal z section analysis using a Zeiss Axiovert 135M/LSM 410 microscope (Carl Zeiss) and Plan-Apochromat×63/1.40 NA oil immersion objective. […] Deposited fibrin volume was measured from confocal sections collected at 4 preset positions in the flow chamber. Total volume of deposited platelets and fibrin was calculated from the sum of the respective area coverage per section multiplied by the z interval (2 μm). […]

For series [2] the following is noted: full anticoagulant dosage; cited from earlier work.
A further series concerns the target T1, nascent TF-FVIIa-FXa (Homo sapiens, UniProt P00742).
T1 construct: purchased Haematologic Technologies (FX); Siemens Healthcare Diagnostics (rTF); FVIIa made in house
The series is described as follows: FVIII activation (FVIIIa generation, WB) by nascent FXa generated by TF-FVIIa. Type of series: biochemical. As to conditions: for effect on FVIII activation by nascent FXa generated by TF-FVIIa: therapeutic concentrations, 50-450 nM.

Another series has as its system immobilized rTF. Briefly: Blood perfusion over immobilized rTF, volume of platelet aggregates and fibrin. Type of series: cell-based, human. Here is the method:
Glass coverslips treated with 0.2 mg/ml poly-L-lysine for 6 h at 37° C. were coated with rTF for 18-20 hours at 37° C. or 2.5 mg/ml acid-insoluble type I collagen for 2 hours at 22-25° C. Then they were rinsed with pH 7.4 buffered-saline, assembled in a rectangular flow chamber with a 125 μm-high silicon gasket and positioned on a confocal microscope stage for analysis. Venous blood for testing was collected into final 10.9 mM trisodium citrate using a plastic syringe for normal volunteers or Vacutainer tubes (Becton Dickinson, Buccinasco, Milan) for patients and controls. Before perfusion at a flow rate yielding an initial wall shear rate of 300 s^−1 maintained with a syringe pump (Harvard Apparatus, Holliston, Mass.), CaCl2 was added to obtain 1.29 mM Ca^2+. In the blood of patients—potentially hypercoagulable—and related controls, lepirudin (50 nM) was also added to neutralize thrombin possibly generated before testing. […] For experiments with WT and mutant FVIIa, cells from group O citrated blood, containing 50 μg/ml CTI and 10 U/ml (ADPase activity) apyrase, were washed free of plasma by sequential centrifugation steps at 1500 g for 7 min. After the first, plasma was replaced with an equal volume of calcium-free Tyrode buffer, pH 6.5, with 5 U/ml apyrase; then with buffer and 1.25 U/ml apyrase; and finally with human FVII deficient plasma (George King Bio-Medical, Overland Park, Kans.) up to the original blood volume. Cell count results in reconstituted and native blood were within 90%. Experiments in Milan (Italy) were performed with a Leica TCS SP5 microscope and HCX PL APO 63x/1.40 NA oil immersion objective (Leica Microsystems GmbH, Wetzlar, Germany); in La Jolla (California) with a Zeiss Axiovert 135M/LSM 410 and Plan-Apochromat 40x/1.40 NA oil immersion objective (Carl Zeiss AG, Oberkochen, Germany).
Platelets adhering and aggregating onto the surface were visualized by adding quinacrine-HCl (mepacrine; 10 μg/ml; Sigma-Aldrich) to blood. Deposited fibrin was visualized with Alexa Fluor 546-labeled (Invitrogen) mouse monoclonal IgG (50 μg/ml) specific for the B chain of mouse and human fibrin (HB-8545; ATCC). Blood was perfused for 3-5 min at 37° C. with a syringe pump (Harvard Apparatus Inc.) at a flow rate yielding an initial (in the unobstructed flow path) wall shear rate of 300 s^−1. This was followed by buffer (DMEM) for 2 minutes to facilitate fibrin quantification by confocal z section analysis using a Zeiss Axiovert 135M/LSM 410 microscope (Carl Zeiss) and Plan-Apochromat×63/1.40 NA oil immersion objective. Image analysis was performed with NIH ImageJ64. Deposited fibrin volume was measured from confocal sections collected at 4 preset positions in the flow chamber. Total volume of deposited platelets and fibrin was calculated from the sum of the respective area coverage per section multiplied by the z interval (2 μm). All studies involving human subjects were conducted following institutionally approved protocols.
TF-coated glass coverslips were perfused with venous blood at a wall shear rate of 300 s^−1. A Zeiss Axiovert 135M/LSM 410 and Plan-Apochromat 40x/1.40 NA oil immersion objective (Carl Zeiss AG, Oberkochen, Germany) was used to visualize platelets/leukocytes and fibrin stained with mepacrine and a specific anti-body, respectively. Image analysis to calculate volumes was performed as described herein.
Glass coverslips treated with 0.2 mg/ml poly-L-lysine for 6 h at 37° C. were coated with rTF for 18-20 hours at 37° C., rinsed with buffered-saline and assembled in a rectangular flow chamber with a 125 μm-high silicon gasket. Venous blood was collected into final 10.9 mM trisodium citrate using a plastic syringe. CaCl2 was added to obtain 1.29 mM Ca^2+ before perfusion at a wall shear rate of 300 s-1 maintained with a syringe pump (Harvard Apparatus, Holliston, Mass.). […]

For a further series, the system named is thrombin generation (TG). Briefly: TG in reactions with purified components (FVIIa, FIXa, rTF, FX, FV, prothrombin, TFPIα). It counts as biochemical, human. As to conditions: therapeutic doses.
Series [3] has as its target T2, pre-activated FXa either free or in a NAPc2-stabilized complex with TF-iFVIIa (Homo sapiens, UniProt P00742).
T2 construct: purchased Haematologic Technologies (FXa); Siemens Healthcare Diagnostics (rTF, Dade Innovin)
Briefly: FVIII activation (FVIIIa generation, WB) by pre-activated FXa, free or in NAPc2-stabilized complex. It counts as biochemical. As to conditions: therapeutic concentrations, 50-450 nM.
Protocol: (D) WB analysis (representing 2) of FVIIIa generation by pre-activated or de novo generated FXa and its inhibition by increasing concentrations of AT/penta. Reactions (37° C.) initiated by 200 pM FXa or 20 pM FVIIa with 50 nM FX into mixtures of 400 pM TF, 0.7 nM FVIII, 200 nM lepirudin without (top, incubation 60 s) or with (bottom, incubation 120 s) 3 nM FV/50 nM FIX. (E) Quantification (relative to non-inhibited control) of FVIIIa generated as in D (bottom) calibrated with known FVIIIa quantities (n=6-8 by nascent FXa, 4-6 by pre-formed FXa). […]
Coagulation reaction products were separated by reducing sodium dodecyl sulfate-polyacrylamide gel electrophoresis (SDS-PAGE), except for the analysis of FVIII activation in the presence of anti-FVIIa MoAbs that was performed under non-reducing conditions. […] Quantitative infrared detection of FVIIIa and FVa was obtained with IRDye 800CW-conjugated anti-mouse IgG or streptavidin followed by analysis with the Odyssey infrared imager (Li-COR, Lincoln, Nebr.). Concentrations were calculated by calibration with known quantities of FVIIIa and FVa. […]

For another series, the target named is T3, FXa WT (Homo sapiens, UniProt P00742).
T3 construct: TF-associated FVIIa has converted FX into FXa active protease
T3 sequence (P00742 41-179 limits assumed): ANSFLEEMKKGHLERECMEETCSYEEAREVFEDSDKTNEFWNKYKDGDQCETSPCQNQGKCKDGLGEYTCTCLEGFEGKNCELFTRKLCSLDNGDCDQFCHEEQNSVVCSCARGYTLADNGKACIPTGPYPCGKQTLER
T3 sequence (P00742 235-488 limits assumed): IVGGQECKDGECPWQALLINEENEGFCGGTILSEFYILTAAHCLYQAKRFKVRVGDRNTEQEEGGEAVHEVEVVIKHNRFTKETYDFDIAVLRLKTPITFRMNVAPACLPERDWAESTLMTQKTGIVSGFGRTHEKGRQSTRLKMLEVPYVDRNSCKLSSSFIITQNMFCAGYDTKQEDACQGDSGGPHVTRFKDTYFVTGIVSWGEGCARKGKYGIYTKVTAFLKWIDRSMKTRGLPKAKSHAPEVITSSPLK
The series is described as follows: FVIIIa generation by FXa WT in stable complex with TF-iFVIIa-NAPc2. It counts as biochemical. As to conditions: 1 nM rivaroxaban.

“Also recorded” adds a separate entry of the source.

T1 sequence (P00742 41-179 limits assumed): as the sequence (P00742 41-179 limits assumed) above
T1 sequence (P00742 235-488 limits assumed): as the sequence (P00742 235-488 limits assumed) above
T2 sequence (P00742 41-179 limits assumed): as the sequence (P00742 41-179 limits assumed) above
T2 sequence (P00742 235-488 limits assumed): as the sequence (P00742 235-488 limits assumed) above
Protocol for nascent TF-FVIIa-FXa: (§1) Thrombin was quantified with a fluorogenic substrate for calculation of % inhibition. […] Reactions were initiated by 100 pM FXa with 50 pM rTF as the phospholipid surface (top); or the preformed complex of 50 pM TF, 100 pM iFVIIa, 100 pM FXa, 5 nM NAPc2 (middle); or 50 pM TF/200 pM FVIIa/135 nM FX (bottom) in mixtures of 0.7 nM FVIII, 3 nM FV, 200 nM lepirudin, 10 nM TFPI, and 2.5 mM CaCl2 incubated for 120 s at 37° C. […] (n=3-4). […] Endogenous thrombin potential (ETP, right) was calculated from the area under the TG curve (n=2). Results in (E) and (F) are shown as 25th-75th percentile bars with min to max whiskers or min to max bars (when n≤3) with a line at the median. Differences were evaluated with the ANOVA/Tukey test (performed after log 10 transformation of the data shown in E); *P<0.05, ***P<0.001.
(A) WB analysis (representing 3) of the effect of anti-FVIIa MoAbs 3G12 and 12C7 (20 μg/ml) on TF-dependent FVIIIa generation after 120 s in reactions including 50 pM TF, 200 pM FVIIa, 135 nM FX, 3.5 nM FVIII, 3 nM FV and 200 nM lepirudin; quantification as in FIG. 4E. […] Reactions contained 50 pM TF, 200 pM FVIIa, 0.7 nM FVIII, 3 nM FV, 135 nM FX, 10 nM TFPI, 200 nM lepirudin and 2.5 mM CaCl2; anti-FVIIa MoAbs or control mouse IgG were at 20 μg/ml; the function-blocking anti-FVIII MoAb 8D4 was at 8 μg/ml. (C) Effect of anti-FVIIa MoAbs 3G12 and 12C7 (20 μg/ml), without or with anti-FVIII MoAb 8D4 (8 μg/ml) or anti-FXI MoAb O1A6 (20 μg/ml), on TG in normal PRP. […] Results in (B) and (D) are shown as 25th-75th percentile bars with min to max whiskers or min to max bars (when n≤3) with a line at the median. Differences were evaluated by a two-tailed t-test with Welch correction (A) or the ANOVA/Tukey test (B and D). *P<0.05, **P<0.01, ***P<0.001.
Coagulation reaction products were separated by reducing sodium dodecyl sulfate-polyacrylamide gel electrophoresis (SDS-PAGE), except for the analysis of FVIII activation in the presence of anti-FVIIa MoAbs that was performed under non-reducing conditions. After transfer to a polyvinylidene fluoride membrane, blots were probed with MoAb C5, biotinylated or not (0.5 μg/ml), for FVIII activation; MoAb AHV-5146 (1 μg/ml) for FV. Quantitative infrared detection of FVIIIa and FVa was obtained with IRDye 800CW-conjugated anti-mouse IgG or streptavidin followed by analysis with the Odyssey infrared imager (Li-COR, Lincoln, Nebr.). Concentrations were calculated by calibration with known quantities of FVIIIa and FVa.
The synthetic reaction mixtures comprised 0.7 nM FVIII, 3 nM FV, 135 nM FX, 104 prothrombin in 50 mM Tris-buffered saline, pH 7.4, with 0.1% BSA. […] Reactions to prevent thrombin effects were carried out in the presence of 200 nM lepirudin or 4 μM DAPA. Reactions were initiated by adding 0.6 to 400 pM rTF, 200 to 500 pM FVIIa or/and 10 nM FIXa, followed by 2.5 mM CaCl2 and incubation at 37° C. for the indicated times. 10 mM EDTA was then added to quench the reaction. Generation of FXa, FIIa and thrombin were evaluated by measuring amidolytic activity toward the chromogenic substrate S-2765 (180 μM; N-α-benzyloxycarbonyl-D-arginyl-L-glycyl-L-arginine-p-nitroaniline; DiaPharma, West Chester, Ohio) and the fluorogenic substrate Z-Gly-Gly-Arg-AMC (360 μM) respectively.
Protocol for thrombin generation (TG): as §1
The synthetic reaction mixtures comprised 0.7 nM FVIII, 3 nM FV, 135 nM FX, 104 prothrombin in 50 mM Tris-buffered saline, pH 7.4, with 0.1% BSA. […] Reactions to prevent thrombin effects were carried out in the presence of 200 nM lepirudin or 4 μM DAPA. […] Generation of FXa, FIIa and thrombin were evaluated by measuring amidolytic activity toward the chromogenic substrate S-2765 (180 μM; N-α-benzyloxycarbonyl-D-arginyl-L-glycyl-L-arginine-p-nitroaniline; DiaPharma, West Chester, Ohio) and the fluorogenic substrate Z-Gly-Gly-Arg-AMC (360 μM) respectively.

Regarding `O=C(NC[C@H]1CN(c2ccc(N3CCOCC3=O)cc2)C(=O)O1)c1ccc(Cl)s1` [Rivaroxaban], in series [1], the “mean volume of platelet aggregates vs controls” value is given as “not significantly different” and the “volume of deposited fibrin vs controls” value is given as “not significantly decreased; also recorded: not significantly different from normal”. The peak plasma concentration in series [2] was 500 nM. Besides, the FVIIIa generation result at nascent TF-FVIIa-FXa (500 nM rivaroxaban) is given as “sustained”. Further, at nascent TF-FVIIa-FXa (TFPI and rivaroxaban combined, rivaroxaban as high as 450 nM, lepirudin present), the “FVIIIa generation, coagulation initiated by FVIIa” value is reported as “substantial FVIIIa generation”. The “effect on FVIII activation by nascent FXa generated by TF-FVIIa” value at nascent TF-FVIIa-FXa is “only marginally affected”. Moreover, the “effect on FVIII activation by nascent FXa generated by TF-FVIIa” value on nascent TF-FVIIa-FXa (listed as rivaroxaban) is “minimally affected; also recorded: only marginally reduced”. Moreover, in the series on immobilized rTF (blood of treated patients, high density TF surface), the fibrin deposition result is “as low as in warfarin treated patients”. For the same compound, the “volume of deposited fibrin” value in the series with immobilized rTF (blood of treated patients, higher rTF coating concentration, 300 s^-1, 5 min) was “significantly greater; also recorded: fibrin formation in the normal range”. The “volume of deposited fibrin vs untreated controls” value in the series with immobilized rTF (blood of treated patients, lower rTF coating concentration, 300 s^-1, 5 min) is given as “markedly smaller”. Moreover, the “volume of platelet aggregates vs controls” value in the series with immobilized rTF (blood of treated patients, rTF coating 20 and 40 pM) is reported as “non significantly different from controls”. The fibrin volume result with immobilized rTF (rivaroxaban added to normal blood in vitro at the concentration measured in treated patients) was “reduced fibrin volume partially”. Further, the “effect on TG initiated by TF alone in reactions containing FIXa without FVIII” value in the series with thrombin generation (TG) is “inhibited”. Further, the “inhibition of FVIII activation by pre-activated FXa” value in series [3] is recorded as about 90%. Also, the “effect on FVIII activation by FXa WT” value at FXa WT is reported as “almost completely inhibited”.

These data come from patent US11136370B2, “Compositions and methods for thrombin generation assay” (The Scripps Research Institute, priority 2016, dated 2021).
